Experimental data from patent publication US7105527B2, “N4-acylcytosine nucleosides for treatment of viral infections” (priority 2001, dated 2006).
Where two headings read alike, the source gives them in different places. Blank lines part the entries; values can stand above or below the compound they belong to.

Experiments:
HIV-1LAl = test: Anti-HIV (in PBM cells) assay, reverse transcriptase readout; type: cell-based
Experimental: Anti-HIV-1 activity of the compounds was determined in human peripheral blood mononuclear (PBM) cells as described previously (Schinazi […]., Cannon D., Mathis R., Lloyd R. M. Jr., […]., St. Clair M., Wilson J., Furman P. A., Painter G., Choi […]. Antimicrob. Agents Chemother. 1992, 36, 2423; Schinazi […]., Cannon D., Xie […]., Smith G., Hahn E. Antimicrob. Agents Chemother. 1990, 34, 1061). Stock solutions ([…]) of the compounds were prepared in sterile DMSO and then diluted to the desired concentration in growth medium. […] Virus obtained from the cell supernatant was quantified on day 6 after infection by a reverse transcriptase assay using (rA)n.(dT)12.18 as template-primer. […] AZT was included as positive control. The antiviral EC50 and EC90 were obtained from the concentration-response curve using the median effective method described previously (Chou […]. Enzyme Regul. 1984, 22, 27-55; Belen'kii M. S. & Schinazi R. F. Antiviral Res. 1994, 25, 1-11).

HIV-1RF = test: Anti-HIV (in MT-2 cells) assay, viral RNA accumulation; type: cell-based
Experimental: In a second antiviral testing system, the potency of the compounds was determined by measurement of viral RNA accumulation in HIV-1RF infected MT-2 cells (Bacheler L T, Paul M, Otto M J, Jadhav P K, Stone B A & Miller J A (1994) An assay for HIV RNIn infected cell lysates, and its use for rapid evaluation of antiviral efficacy. Antivir. Chem. Chemother. 5:111–121). The virus titer was established to determine the dilution producing 15 to 30 ng/RNA per well of HIV RNIn 3 days of infection. HIV-1 RNA was quantified using biotinylated capture and alkaline phosphatase-derivatized reporter oligonucleotides as described previously (Charvet A-S, Camplo M, Faury P, Graciet J C, Mourier N, Chermann J C & Kraus J L (1994) Inhibition of human immunodeficiency virus type 1 replication by phosphonoformate- and phosphonoacetate-2′,3′-dideoxy-3′-thiacytidine conjugates. J. Med. Chem. 37:2216–2223). In a third system, the effect of analogs on the replication of HIV-1NL4-3 was determined via the InterCompany Consortium consensus p24 assay as previously described (Jadhav P K & MacKay M F (1997) Cyclic urea amide: HIV-1 protease inhibitors with low nanomolar potency against both wild types and protease inhibitor resistant mutants of HIV. J. Med. Chem. 40:181–190). Recombinant viruses were recovered by transfecting the appropriate NL4-3 plasmid by lipofection. Virus stocks recovered 7 to 10 days post-transfection were titered on MT-4 cells to determine if the dilution produced 1,000 to 3,000 ng p24 in 4 days. This dilution was then used in drug susceptibility assays, where drug was added 24 h post infection of cells, and p24 quantified by ELISA 3 days later.

human PBM cells = test: Cytotoxicity assay in PBM cells; type: cell-based
Experimental: (§1) The toxicity of the compounds was assessed in Vero, human PBM, CEM (human lymphoblastoid), MT-2, and HepG2 cells, as described previously (Schinazi […]., Cannon D. L., Xie […]., Smith […]. […] Cycloheximide was included as positive cytotoxic control, and untreated cells exposed to solvent were included as negative controls. The cytotoxicity IC50 was obtained from the concentration-response curve using the median effective method described previously (Chou […]. […] Belen'kii M. S. & Schinazi R. F.

[1] = tested on: CEM (human lymphoblastoid) cells; test: Cytotoxicity assay in CEM cells; type: cell-based
Experimental: as §1

Vero cells = test: Cytotoxicity assay in Vero cells; type: cell-based
Experimental: as §1

MT-2 cells = test: Cytotoxicity assay in MT-2 cells; type: cell-based
Experimental: as §1

HepG2 cells = test: Cytotoxicity assay in HepG2 cells; type: cell-based
Experimental: as §1

[2] = Cytotoxicity assay in PBM cells; type: cell-based, human; details: human, human PBM cells
Experimental: as §1

[3] = Cytotoxicity assay in CEM cells; type: cell-based, human; details: human, CEM lymphoblastoid cells
Experimental: as §1

[4] = Cytotoxicity assay in Vero cells; type: cell-based; details: African green monkey
Experimental: as §1

[5] = Cytotoxicity assay in MT-2 cells; type: cell-based; details: human
Experimental: as §1

[6] = Cytotoxicity assay in HepG2 cells; type: cell-based; details: human
Experimental: as §1

[7] = Table 1, read-out: Anti-HIV-1 activity in different cells (EC90, μM) PBM
[8] = Table 1, EC90, MT-2 cells, read-out: Anti-HIV-1 activity in different cells (EC90, μM) MT-2
[9] = Table 1, read-out: Cytotoxicity in different cells (IC50, μM) PBM
[10] = Table 1, read-out: Cytotoxicity in different cells (IC50, μM) CEM
[11] = Table 1, read-out: Cytotoxicity in different cells (IC50, μM) Vero
[12] = Table 1, read-out: Cytotoxicity in different cells (IC50, μM) MT-2
[13] = Table 1, read-out: Cytotoxicity in different cells (IC50, μM) HepG2
[14] = Human immunodeficiency virus 1, PBMC, Table 1, read-out: Anti-HIV-1 activity in different cells (EC90, μM) PBM
[15] = Human immunodeficiency virus 1, MT2, Table 1, EC90, MT-2 cells, read-out: Anti-HIV-1 activity in different cells (EC90, μM) MT-2
[16] = Human immunodeficiency virus 1, PBMC, Table 2, read-out: Anti-HIV-1 activity in different cells (EC90, μM) PBM
[17] = Human immunodeficiency virus 1, MT2, Table 2, EC90, MT-2 cells, read-out: Anti-HIV-1 activity in different cells (EC90, μM) MT-2
[18] = Table 2, read-out: Cytotoxicity in different cells (IC50, μM) PBM
[19] = Table 2, read-out: Cytotoxicity in different cells (IC50, μM) MT-2
[20] = Table 2, read-out: Cytotoxicity in different cells (IC50, μM) HepG2
[21] = Table 2, read-out: Cytotoxicity in different cells (IC50, μM) CEM
[22] = Table 2, read-out: Cytotoxicity in different cells (IC50, μM) Vero

SMILES: COc1ccc(C(=O)Nc2nc(=O)n([C@H]3CC[C@@H](CO)O3)cc2F)cc1 [Compound 17, β-D-N^4-p-Anisoyl-2′,3′-dideoxy-5-fluorocytidine]
- EC90 (HIV-1LAl; [7]): 8.31 µM
- EC90 (HIV-1RF; [8]): 6 µM
- IC50 (human PBM cells; [9]): 69.2 µM
- IC50 [1, 10]: 31.6 µM
- IC50 (Vero cells; [11]): 5.3 µM
- IC50 (MT-2 cells; [12]): 16 µM
- IC50 (HepG2 cells; [13]): 4.5 µM

SMILES: Cc1cccc(C(=O)Nc2nc(=O)n([C@H]3CC[C@@H](CO)O3)cc2F)c1 [Compound 23, β-D-2′,3′-Dideoxy-5-fluoro-N-m-toluoylcytidine]
- EC90 (HIV-1LAl; [14]): 0.012 µM
- EC90 (HIV-1RF; [15]): 0.24 µM
- IC50 [2, 9]: 8.4 µM
- IC50 [3, 10]: > 100 µM
- IC50 [4, 11]: 61.1 µM
- IC50 [5, 12]: > 50 µM
- IC50 [6, 13]: > 100 µM

- EC90 (HIV-1LAl; [7]): 0.31 µM
SMILES: CCCCc1ccc(C(=O)Nc2nc(=O)n([C@H]3CC[C@@H](CO)O3)cc2F)cc1 [Compound 27, β-D-N^4-(4-n-Butylbenzoyl)-2,3′-dideoxy-5-fluorocytidine]
- IC50 (human PBM cells; [9]): 1.1 µM
- IC50 [1, 10]: 1.3 µM
- IC50 (Vero cells; [11]): 3.2 µM
- IC50 (HepG2 cells; [13]): 1.9 µM

SMILES: CC(C)(C)c1ccc(C(=O)Nc2nc(=O)n([C@H]3CC[C@@H](CO)O3)cc2F)cc1 [Compound 28, β-D-N^4-(4-tert-Butylbenzoyl)-2,3′-dideoxy-5-fluorocytidine]
- EC90 (HIV-1LAl; [7]): 0.088 µM
- EC90 (HIV-1RF; [8]): 0.6 µM
- IC50 (human PBM cells; [9]): 12.5 µM
- IC50 [1, 10]: 6 µM
- IC50 (Vero cells; [11]): 25.9 µM
- IC50 (HepG2 cells; [13]): 21.3 µM

SMILES: O=C(Nc1nc(=O)n([C@H]2CC[C@@H](CO)O2)cc1F)c1cccs1 [Compound 30, β-D-2′,3′-Dideoxy-5-fluoro-N^4-(2-thiophenecarbonyl)cytidine]
- EC90 (HIV-1LAl; [14]): 0.052 µM
- EC90 (HIV-1RF; [15]): 0.4 µM
- IC50 [2, 9]: 19.4 µM
- IC50 [3, 10]: 13.7 µM
- IC50 [4, 11]: 23.9 µM
- IC50 [5, 12]: > 50 µM
- IC50 [6, 13]: 37.9 µM

SMILES: O=C(Nc1nc(=O)n([C@H]2CC[C@@H](CO)O2)cc1F)c1cc2ccccc2s1 [Compound 32, β-D-2′,3′-Dideoxy-5-fluoro-N^4-(benzo[b]thiophene-2-carbonyl)cytidine]
- EC90 (HIV-1LAl; [14]): 0.19 µM
- EC90 (HIV-1RF; [15]): 0.3 µM
- IC50 [2, 9]: 23.5 µM
- IC50 [3, 10]: 4.5 µM
- IC50 [4, 11]: 39.6 µM
- IC50 [5, 12]: > 50 µM
- IC50 [6, 13]: 1.3 µM

SMILES: O=C(Nc1nc(=O)n([C@H]2CC[C@@H](CO)O2)cc1F)C1CCCCC1 [Compound 33, β-D-N^4-(Cyclohexanecarbonyl)-2′,3′-dideoxy-5-fluorocytidine]
- EC90 (HIV-1LAl; [14]): 0.086 µM
- EC90 (HIV-1RF; [15]): 0.3 µM
- IC50 [2, 9]: 4.5 µM
- IC50 [3, 10]: 6.4 µM
- IC50 [4, 11]: 11.8 µM
- IC50 [5, 12]: 50 µM
- IC50 [6, 13]: 6.5 µM

SMILES: COc1ccc(C(=O)Nc2nc(=O)n([C@H]3C=C[C@@H](CO)O3)cc2F)cc1 [Compound 42, β-D-N^4-p-Anisoyl-2′,3′-didehydro-2′,3′dideoxy-5-fluorocytidine]
- EC90 (HIV-1LAl; [16]): 0.7 µM
- EC90 (HIV-1RF; [17]): 0.58 µM
- IC50 [2, 18]: > 100 µM
- IC50 [5, 19]: > 50 µM
- IC50 [6, 20]: > 100 µM

SMILES: O=C(Nc1nc(=O)n([C@H]2C=C[C@@H](CO)O2)cc1F)c1cccc([N+](=O)[O-])c1 [Compound 46, β-D-2′,3′-Didehydro-2,3′-dideoxy-5-fluoro-N^4-(3-nitrobenzoyl)cytidine]
- EC90 (HIV-1LAl; [16]): 0.93 µM
- EC90 (HIV-1RF; [17]): 0.58 µM
- IC50 [2, 18]: 11.9 µM
- IC50 [3, 21]: 54.5 µM
- IC50 [4, 22]: > 100 µM
- IC50 [5, 19]: > 50 µM
- IC50 [6, 20]: > 100 µM

SMILES: Cc1ccc(C(=O)Nc2nc(=O)n([C@H]3C=C[C@@H](CO)O3)cc2F)cc1 [Compound 48, β-D-2′,3′-Didehydro-2′,3′-dideoxy-5-fluoro-N^4-p-toluoylcytidine]
- EC90 (HIV-1LAl; [16]): 0.32 µM
- EC90 (HIV-1RF; [17]): 0.21 µM
- IC50 [2, 18]: 13.2 µM
- IC50 [3, 21]: 31.9 µM
- IC50 [4, 22]: > 100 µM
- IC50 [5, 19]: > 50 µM
- IC50 [6, 20]: > 100 µM

SMILES: Cc1cccc(C(=O)Nc2nc(=O)n([C@H]3C=C[C@@H](CO)O3)cc2F)c1 [Compound 49, β-D-2,3′-Didehydro-2,3′-dideoxy-5-fluoro-N^4-m-toluoylcytidine]
- EC90 (HIV-1LAl; [16]): 0.7 µM
- EC90 (HIV-1RF; Human immunodeficiency virus 1, MT2, read-out: Anti-HIV-1 activity in different cells (EC90, μM) MT-2): 0.8 µM
- IC50 [2, 18]: 57.1 µM
- IC50 [3, 21]: 34.9 µM
- IC50 [4, 22]: 149 µM
- IC50 [5, 19]: > 50 µM
- IC50 [6, 20]: > 100 µM

- EC90 (HIV-1LAl; Table 2, read-out: Anti-HIV-1 activity in different cells (EC90, μM) PBM): 3.1 µM
SMILES: CCCCc1ccc(C(=O)Nc2nc(=O)n([C@H]3C=C[C@@H](CO)O3)cc2F)cc1 [Compound 52, β-D-N^4-(4-n-Butylbenzoyl)-2′,3′-didehydro-2,3′-dideoxy-5-fluoro-^4cytidine]
- IC50 (human PBM cells; [18]): 7.3 µM
- IC50 [1, 21]: 8.5 µM
- IC50 (Vero cells; [22]): 29.4 µM
- IC50 (HepG2 cells; [20]): 5.1 µM

SMILES: O=C(Nc1nc(=O)n([C@H]2C=C[C@@H](CO)O2)cc1F)C1CCCC1 [Compound 57, β-D-N^4-(Cyclopentanecarbonyl)-2′,3′-didehydro-2′,3′-dideoxy-5-fluorocytidine]
- EC90 (HIV-1LAl; [16]): 0.4 µM
- EC90 (HIV-1RF; [17]): 0.51 µM
- IC50 [2, 18]: 52.9 µM
- IC50 [3, 21]: 19.6 µM
- IC50 [4, 22]: 87.6 µM
- IC50 [5, 19]: > 50 µM
- IC50 [6, 20]: > 100 µM

SMILES: O=C(Nc1nc(=O)n([C@H]2C=C[C@@H](CO)O2)cc1F)C1CCCCC1 [Compound 58, β-D-N-(Cyclohexanecarbonyl)-2′ 3′-didehydro-2′,3′-dideoxy-5-fluorocytidine]
- EC90 (HIV-1LAl; [16]): 0.6 µM
- EC90 (HIV-1RF; [17]): 0.38 µM
- IC50 [2, 18]: 11.7 µM
- IC50 [3, 21]: 11.2 µM
- IC50 [4, 22]: > 100 µM
- IC50 [5, 19]: > 50 µM
- IC50 [6, 20]: > 100 µM

SMILES: CCCCCCC(=O)Nc1nc(=O)n(C2C=CC(CO)O2)cc1F [Compound 59, β-D-2′,3′-Didehydro-2′,3′-dideoxy-5-fluoro-N^4-heptanoylcytidine]
- EC90 (HIV-1RF; Table 2, EC90, MT-2 cells, read-out: Anti-HIV-1 activity in different cells (EC90, μM) MT-2): 0.23 µM
- IC50 (MT-2 cells; [19]): 6.2 µM
